According to patent US12172995B2, “Substituted indole and indazole compounds” (BRISTOL-MYERS SQUIBB COMPANY, priority 2018, dated 2024):

What was measured:
Assay type in all cases: cell-based
[1] = target: T1, human TLR7 (Homo sapiens, UniProt Q9NYK1); experiment: TLR7 inhibition reporter assay (HEK-Blue SEAP); conditions: HEK-Blue cells overexpressing human TLR7, stimulated with gardiquimod 7.5 μM, 22 hour incubation
T1 construct: host or cells: HEK-Blue cells
T1 sequence (Q9NYK1 27-1049): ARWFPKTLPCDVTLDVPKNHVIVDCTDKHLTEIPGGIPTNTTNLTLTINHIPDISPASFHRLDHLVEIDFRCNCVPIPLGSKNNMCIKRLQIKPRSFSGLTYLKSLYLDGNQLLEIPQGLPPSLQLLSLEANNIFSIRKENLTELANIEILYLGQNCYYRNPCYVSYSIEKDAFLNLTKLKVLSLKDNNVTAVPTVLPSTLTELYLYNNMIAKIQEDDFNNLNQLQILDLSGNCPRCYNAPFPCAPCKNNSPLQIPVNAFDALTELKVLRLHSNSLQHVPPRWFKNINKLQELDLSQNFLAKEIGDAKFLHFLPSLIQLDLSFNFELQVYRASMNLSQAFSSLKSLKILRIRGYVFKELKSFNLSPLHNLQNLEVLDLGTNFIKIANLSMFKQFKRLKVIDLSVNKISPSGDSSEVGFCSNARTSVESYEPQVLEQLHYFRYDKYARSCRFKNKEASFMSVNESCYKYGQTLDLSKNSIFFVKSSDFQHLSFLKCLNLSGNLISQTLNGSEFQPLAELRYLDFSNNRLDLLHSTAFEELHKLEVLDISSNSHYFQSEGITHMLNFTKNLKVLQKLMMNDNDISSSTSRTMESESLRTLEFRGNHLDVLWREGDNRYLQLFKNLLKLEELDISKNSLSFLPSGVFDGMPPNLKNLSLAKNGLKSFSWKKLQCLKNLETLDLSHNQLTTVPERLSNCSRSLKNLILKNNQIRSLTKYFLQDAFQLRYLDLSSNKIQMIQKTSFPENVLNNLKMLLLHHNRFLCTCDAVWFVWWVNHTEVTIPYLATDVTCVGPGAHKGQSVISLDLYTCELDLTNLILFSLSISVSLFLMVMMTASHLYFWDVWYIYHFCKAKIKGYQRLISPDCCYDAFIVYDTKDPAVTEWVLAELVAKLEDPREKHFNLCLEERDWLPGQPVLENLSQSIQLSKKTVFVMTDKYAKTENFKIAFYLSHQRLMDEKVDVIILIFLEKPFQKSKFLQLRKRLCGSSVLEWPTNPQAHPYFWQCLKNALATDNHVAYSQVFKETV
Procedure, shortened: (§1)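 HEK-Blue cells overexpressing the receptor, with an NF-κB/AP-1-driven SEAP reporter, were pre-treated with compound (0.05 nM to 50 μM) for 30 min at room temperature. Stimulation used gardiquimod 7.5 μM (TLR7), R848 15.9 μM (TLR8) or ODN2006 5 nM (TLR9), followed by 22 h at 37 °C.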

[2] = target: T2, human TLR8 (Homo sapiens, UniProt Q9NR97); experiment: TLR8 inhibition reporter assay (HEK-Blue SEAP); conditions: HEK-Blue cells overexpressing human TLR8, stimulated with R848 15.9 μM, 22 hour incubation
T2 construct: host or cells: HEK-Blue cells
T2 sequence (Q9NR97 27-1041): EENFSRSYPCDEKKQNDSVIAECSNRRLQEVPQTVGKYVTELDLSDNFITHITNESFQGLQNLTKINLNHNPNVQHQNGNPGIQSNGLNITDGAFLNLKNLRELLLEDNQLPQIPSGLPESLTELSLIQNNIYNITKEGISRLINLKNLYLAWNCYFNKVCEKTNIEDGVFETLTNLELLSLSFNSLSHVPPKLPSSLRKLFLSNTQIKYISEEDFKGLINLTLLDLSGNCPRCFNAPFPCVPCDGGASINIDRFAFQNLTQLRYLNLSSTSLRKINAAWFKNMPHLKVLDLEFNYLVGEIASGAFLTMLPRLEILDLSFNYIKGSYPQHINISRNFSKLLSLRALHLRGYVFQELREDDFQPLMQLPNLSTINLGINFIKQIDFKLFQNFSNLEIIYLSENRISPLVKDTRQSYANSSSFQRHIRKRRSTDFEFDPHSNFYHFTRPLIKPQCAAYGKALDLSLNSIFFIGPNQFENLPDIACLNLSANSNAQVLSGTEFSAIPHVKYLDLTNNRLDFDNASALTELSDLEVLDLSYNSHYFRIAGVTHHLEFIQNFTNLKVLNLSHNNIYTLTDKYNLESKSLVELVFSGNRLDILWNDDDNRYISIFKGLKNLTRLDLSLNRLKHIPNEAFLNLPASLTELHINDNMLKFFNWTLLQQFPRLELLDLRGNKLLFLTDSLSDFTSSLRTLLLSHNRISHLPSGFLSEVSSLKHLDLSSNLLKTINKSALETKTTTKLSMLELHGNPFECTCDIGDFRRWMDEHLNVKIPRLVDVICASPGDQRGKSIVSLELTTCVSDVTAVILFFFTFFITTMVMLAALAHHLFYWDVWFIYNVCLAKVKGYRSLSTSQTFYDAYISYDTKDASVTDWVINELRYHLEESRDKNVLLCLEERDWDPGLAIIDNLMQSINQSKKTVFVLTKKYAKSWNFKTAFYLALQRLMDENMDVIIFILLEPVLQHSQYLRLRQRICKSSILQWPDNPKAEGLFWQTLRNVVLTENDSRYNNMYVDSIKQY
Procedure, shortened: as §1

[3] = target: T3, human TLR9 (Homo sapiens, UniProt Q9NR96); experiment: TLR9 inhibition reporter assay (HEK-Blue SEAP); conditions: HEK-Blue cells overexpressing human TLR9, stimulated with ODN2006 5 nM, 22 hour incubation
T3 construct: host or cells: HEK-Blue cells
T3 sequence (Q9NR96 26-1032): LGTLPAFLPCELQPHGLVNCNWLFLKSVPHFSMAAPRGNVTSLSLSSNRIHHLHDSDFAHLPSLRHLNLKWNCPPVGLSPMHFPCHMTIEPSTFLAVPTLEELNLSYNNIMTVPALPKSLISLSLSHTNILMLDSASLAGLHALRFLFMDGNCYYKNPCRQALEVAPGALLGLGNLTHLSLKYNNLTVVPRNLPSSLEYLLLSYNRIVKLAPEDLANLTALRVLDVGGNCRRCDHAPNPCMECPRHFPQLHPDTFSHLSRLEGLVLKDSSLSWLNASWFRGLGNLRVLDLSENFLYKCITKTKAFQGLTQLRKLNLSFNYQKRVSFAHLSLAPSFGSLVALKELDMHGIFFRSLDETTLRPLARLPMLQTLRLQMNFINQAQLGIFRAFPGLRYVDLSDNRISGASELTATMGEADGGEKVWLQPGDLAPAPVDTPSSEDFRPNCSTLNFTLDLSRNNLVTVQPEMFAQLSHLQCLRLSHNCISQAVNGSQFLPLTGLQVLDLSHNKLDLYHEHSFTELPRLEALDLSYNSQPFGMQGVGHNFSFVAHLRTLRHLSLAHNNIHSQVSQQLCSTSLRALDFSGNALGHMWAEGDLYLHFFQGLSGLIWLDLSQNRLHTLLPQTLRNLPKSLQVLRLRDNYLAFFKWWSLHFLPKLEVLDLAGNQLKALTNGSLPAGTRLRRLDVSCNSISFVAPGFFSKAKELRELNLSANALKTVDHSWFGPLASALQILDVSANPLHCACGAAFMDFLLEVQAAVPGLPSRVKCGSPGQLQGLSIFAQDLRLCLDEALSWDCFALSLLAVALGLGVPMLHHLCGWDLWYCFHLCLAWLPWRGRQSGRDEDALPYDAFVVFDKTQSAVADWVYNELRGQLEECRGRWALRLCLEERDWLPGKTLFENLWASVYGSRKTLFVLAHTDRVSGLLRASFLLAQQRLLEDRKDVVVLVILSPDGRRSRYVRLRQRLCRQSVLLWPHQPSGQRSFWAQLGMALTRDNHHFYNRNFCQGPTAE
Procedure, shortened: as §1

| IC50 [1] [nM] | IC50 [2] [nM] | IC50 [3] [nM] | SMILES |
| --- | --- | --- | --- |
| 25.9 | 5.8 | 27400 | Cc1cc2c(OC3CCC(N(C)C)CC3)n[nH]c2cc1-c1cc(C)c2ncnn2c1 (single isomer, unassigned) [Example 182, N,N-dimethyl-4-((5-methyl-6-(8-methyl-[1,2,4]triazolo[1,5-a]pyridin-6-yl)-1H-indazol-3-yl)oxy)cyclohexan-1-amine] |
| 4.9 | 8.1 | 2310 | COc1cc(-c2cc(C)c3c(OC4CCC(N(C)C)CC4)n[nH]c3c2)cn2ncnc12 (single isomer, unassigned) [Example 183, 4-((6-(8-methoxy-[1,2,4]triazolo[1,5-a]pyridin-6-yl)-4-methyl-1H-indazol-3-yl)oxy)-N,N-dimethylcyclohexan-1-amine] |
| 1.8 | 1.8 | 1190 | COc1cc(-c2cc(C)c3c(OC4CCC(N(C)C)CC4)n[nH]c3c2)cn2ncnc12 (single isomer, unassigned) [Example 184, 4-((6-(8-methoxy-[1,2,4]triazolo[1,5-a]pyridin-6-yl)-4-methyl-1H-indazol-3-yl)oxy)-N,N-dimethylcyclohexan-1-amine] |
| 20.9 | 9.5 | 2770 | Cc1cc(-c2cc(C)c3ncnn3c2)cc2[nH]nc(OC3CCC(NCC(=O)N(C)C)CC3)c12 (single isomer, unassigned) [Example 185, N,N-dimethyl-2-((4-((4-methyl-6-(8-methyl-[1,2,4]triazolo[1,5-a]pyridin-6-yl)-1H-indazol-3-yl)oxy)cyclohexyl)amino)acetamide] |
| 2.4 | 1.9 | 2550 | Cc1cc(-c2cc(C)c3ncnn3c2)cc2[nH]nc(OC3CCC(NCC(=O)N(C)C)CC3)c12 (single isomer, unassigned) [Example 186, N,N-dimethyl-2-((4-((4-methyl-6-(8-methyl-[1,2,4]triazolo[1,5-a]pyridin-6-yl)-1H-indazol-3-yl)oxy)cyclohexyl)amino)acetamide] |
| 12.2 | 8.2 | 2340 | Cc1cc(-c2cc(C)c3ncnn3c2)cc2[nH]nc(OC3CCC(NC4CC4)CC3)c12 (single isomer, unassigned) [Example 189, N-cyclopropyl-4-((4-methyl-6-(8-methyl-[1,2,4]triazolo[1,5-a]pyridin-6-yl)-1H-indazol-3-yl)oxy)cyclohexan-1-amine] |
| 1.6 | 1.9 | 4510 | Cc1cc(-c2cc(C)c3ncnn3c2)cc2[nH]nc(OC3CCC(NC4CC4)CC3)c12 (single isomer, unassigned) [Example 190, N-cyclopropyl-4-((4-methyl-6-(8-methyl-[1,2,4]triazolo[1,5-a]pyridin-6-yl)-1H-indazol-3-yl)oxy)cyclohexan-1-amine] |
| 2.6 | 0.5 | 14600 | CCc1cc2c(OC3CCC(N(C)C)CC3)n[nH]c2cc1-c1cc(C)c2ncnn2c1 (single isomer, unassigned) [Example 191, 4-((5-ethyl-6-(8-methyl-[1,2,4]triazolo[1,5-a]pyridin-6-yl)-1H-indazol-3-yl)oxy)-N,N-dimethylcyclohexan-1-amine] |
| 0.7 | 0.1 | 7890 | CCc1cc2c(OC3CCC(N(C)C)CC3)n[nH]c2cc1-c1cc(C)c2ncnn2c1 (single isomer, unassigned) [Example 192, 4-((5-ethyl-6-(8-methyl-[1,2,4]triazolo[1,5-a]pyridin-6-yl)-1H-indazol-3-yl)oxy)-N,N-dimethylcyclohexan-1-amine] |
| 0.62 | 0.05 | 8000 | Cc1cc(-c2cc3[nH]nc(C4CCC(N5CCC6(CCOC6)C5)CC4)c3cc2C(C)C)cn2ncnc12 (single isomer, unassigned) [Example 209, 7-(4-(5-isopropyl-6-(8-methyl-[1,2,4]triazolo[1,5-a]pyridin-6-yl)-1H-indazol-3-yl)cyclohexyl)-2-oxa-7-azaspiro[4.4]nonane] |
| 2.1 | 0.37 | 5910 | Cc1cc(-c2cc3[nH]nc(C4CCC(N5CCC6(CCOC6)C5)CC4)c3cc2C(C)C)cn2ncnc12 (single isomer, unassigned) [Example 210, 7-(4-(5-isopropyl-6-(8-methyl-[1,2,4]triazolo[1,5-a]pyridin-6-yl)-1H-indazol-3-yl)cyclohexyl)-2-oxa-7-azaspiro[4.4]nonane] |
| 2.5 | 0.15 | 32300 | Cc1cc(-c2cc3[nH]nc(C4CCC(N5CCC(S(C)(=O)=O)C5)CC4)c3cc2C(C)C)cn2ncnc12 (single isomer, unassigned) [Example 211, 6-(5-isopropyl-3-(4-(3-(methylsulfonyl)pyrrolidin-1-yl)cyclohexyl)-1H-indazol-6-yl)-8-methyl-[1,2,4]triazolo[1,5-a]pyridine] |
